# Read-outs that look alike come from different tables or passages of the source. Starred links: 1 amine or outer side, 2 acyl side, 3 side chain; linkers in the order of their positions; H or OH if unused. Positions of bridges follow the written chain, without caps; N, C: chain ends. Non-standard residues stand in square brackets, D forms with d. Residues, ends and D or L forms follow the SMILES beside them. *: point of attachment. hTyr(3S-OH,4S-OH,3'-OSO3H) = N[C@H](C(=O)O)[C@H](O)[C@@H](O)c1ccc(O)c(OS(=O)(=O)O)c1; Orn(4R-OH,5R-OH) = O=C([C@H](C[C@@H](O)[C@@H](O)N[*:3])N[*:1])[*:2]; Pro(3S-OH,4S-Me) = C[C@H]1CN[C@H](C(=O)O)[C@H]1O; X1 = CCCCCOc1ccc(-c2cc(-c3ccc(C(=O)*)cc3)no2)cc1; Gln(3R-OH) = NC(=O)C[C@@H](O)[C@H](N)C(=O)O; Hyp = O=C(O)[C@@H]1C[C@@H](O)CN1
# How the values were obtained:
# C. auris CBS 10913 = assay: Antifungal MIC assay (broth microdilution in YNB); type: cell-based, Candida auris; conditions: Candidozyma auris
# Description: (§1) Yeast strains: Candida albicans (ATCC 90028, NCCLS 11), Cryptococcus neoformans (ATCC 208821, H99 type strain), Candida tropicalis (ATCC 750, type strain), Candida glabrata (ATCC 90030, NCCLS 84) and Cryptococcus deuterogattii (ATCC 32609, type strain) were obtained from the American Type Culture Collection (ATCC). Cryptococcus deuterogattii (CBS 7750), Candida auris (CBS 10913) and Candida auris (CBS 12373) were obtained from the CBS‐KNAW culture collection. The strains were maintained on glycerol/YPD (yeast extract‐peptone dextrose) broth (20:80 v/v) at −80 °C.
# (§2) Antifungal minimum inhibitory concentration (MIC) assay: The cobalt complexes and antifungal control compounds were serially diluted in 50 μL of Yeast Nitrogen Broth (YNB; BD, Cat No. 233520 supplemented with 2 % glucose and 10 mM ammonium sulfate) two‐fold across the wells of non‐binding surface (NBS) 96‐well plates (Corning; Cat. No. 3641). Plates were set up in quadruplicate for each strain tested, and two biological replicates were conducted on separate assay days.
# (§3) Yeast strains were cultured from glycerol onto YPD (Becton Dickinson 242720) agar at 30 °C for 72 h. For each strain, a minimum of five single colonies were taken from the agar plate and dissolved in sterile water and adjusted to form a yeast suspension of 1×10^6 to 5×10^6 CFU mL^−1 (as determined by OD530). The suspension was subsequently diluted into YNB media, and added to each well of the compound containing plates, giving a final cell density of 2.5×10^3 CFU mL^−1 and a total volume of 100 μL. Plates were covered and incubated at 35 °C for 36 h without shaking.
# (§4) Growth inhibition of all strains was determined visually where the MIC was recorded as the lowest compound concentration with no visible growth. Fluconazole (Sigma F8929), ketoconazole (Sigma K1003) and micafungin (Sigma SML2288) were used as internal positive inhibitor controls for every strain tested.
# C. auris CBS 12373 = assay: Antifungal MIC assay (broth microdilution in YNB); type: cell-based, Candida auris; conditions: Candidozyma auris
# Description: as §1, §2, §3, §4
# [1] = test system: C. deuterogattii ATCC 32609; assay: Antifungal MIC assay (broth microdilution in YNB); type: cell-based, Cryptococcus deuterogattii; conditions: Cryptococcus deuterogattii
# Description: as §1, §2, §3, §4
# [2] = test system: C. deuterogattii CBS 7750; assay: Antifungal MIC assay (broth microdilution in YNB); type: cell-based, Cryptococcus deuterogattii; conditions: Cryptococcus deuterogattii
# Description: as §1, §2, §3, §4
# C. albicans ATCC 90028 = assay: Antifungal MIC assay (broth microdilution in YNB); type: cell-based, Candida albicans; conditions: Candida albicans
# Description: as §1, §2, §3, §4
# C. glabrata ATCC 90030 = assay: Antifungal MIC assay (broth microdilution in YNB); type: cell-based, Candida glabrata; conditions: Nakaseomyces glabratus
# Description: as §1, §2, §3, §4
# [3] = test system: C. neoformans ATCC 208821; assay: Antifungal MIC assay (broth microdilution in YNB); type: cell-based, Cryptococcus neoformans; conditions: Cryptococcus neoformans
# Description: as §1, §2, §3, §4
# C. tropicalis ATCC 750 = assay: Antifungal MIC assay (broth microdilution in YNB); type: cell-based, Candida tropicalis; conditions: Candida tropicalis
# Description: as §1, §2, §3, §4
# [4] = test system: Staphylococcus aureus ATCC 43300 (MRSA); assay: CO-ADD bacterial broth microdilution MIC assay; type: cell-based; conditions: Staphylococcus aureus, 18 h, read-out: MIC Sa (Staphylococcus aureus ATCC 43300, MRSA)
# Method: (§5) CO-ADD High Throughput Screening
# (§6) Bacterial broth microdilution minimum inhibitory concentration (MIC) assay Bacterial strains were cultured in Cation-adjusted Mueller Hinton broth (CAMHB; Bacto Laboratories 212322) at 37 °C overnight. A sample of each culture was then diluted 40-fold in fresh CAMHB and incubated at 37 °C for 1.5-3 h. The resultant mid-log phase cultures were diluted with CAMHB (CFU/mL measured by OD600), then added to each well of the compound-containing plates (384-well non-binding surface (NBS) plates; Corning CLS3640), giving a cell density of 5 × 10^5 CFU/mL and a total volume of 50 µL. Plates were covered and incubated at 37 °C for 18 h without shaking. Inhibition of bacterial growth was determined measuring absorbance at 600 nm (OD600), using media only as negative control and bacteria without inhibitors as positive control. MIC values were determined as the lowest concentration at which the growth was inhibited at ≥ 80%. Colistin sulfate (Sigma C4461) and vancomycin HCl (Sigma 861987) were used as positive inhibitor controls on each plate for Gram-negative and Gram-positive bacteria, respectively.
# (§7) Figure S1. 1H NMR (400 MHz) of [Co(ATS)(DMAP)2]NO3 (3) in DMSO-d6.
# (§8) (1 picture or pasted object on this page, not shown here)
# [5] = test system: Pseudomonas aeruginosa ATCC 27853; assay: CO-ADD bacterial broth microdilution MIC assay; type: cell-based; conditions: CAMHB, 37 °C, 18 h, ≥ 80% inhibition
# Method: as §5, §6, §7, §8
# [6] = test system: Escherichia coli ATCC 25922; assay: CO-ADD bacterial broth microdilution MIC assay; type: cell-based; conditions: CAMHB, 37 °C, 18 h, ≥ 80% inhibition
# Method: as §5, §6, §7, §8
# [7] = test system: Acinetobacter baumannii ATCC 19606; assay: CO-ADD bacterial broth microdilution MIC assay; type: cell-based; conditions: CAMHB, 37 °C, 18 h, ≥ 80% inhibition
# Method: as §5, §6, §7, §8
# [8] = test system: Klebsiella pneumoniae ATCC 700603 (K6; ESBL SHV-18); type: cell-based; conditions: CAMHB, 37 °C, 18 h, ≥ 80% inhibition
# Method: as §5, §6, §7, §8
# [9] = CBS10913, Table S1, read-out: MIC Candida auris CBS 10913
# [10] = CBS10913, range of MICs, n=8, 35 °C, 36 h, visual, read-out: MIC C. auris CBS 10913
# [11] = CBS12373, Table S1, read-out: MIC Candida auris CBS 12373
# [12] = CBS12373, range of MICs, n=8, 35 °C, 36 h, visual, read-out: MIC C. auris CBS 12373
# [13] = ATCC32609, Table S1, read-out: MIC Cryptococcus deuterogattii ATCC 32609
# [14] = ATCC32609, range of MICs, n=8, 35 °C, 36 h, visual, read-out: MIC C. deuterogattii ATCC 32609
# [15] = CBS7750, Table S1, read-out: MIC Cryptococcus deuterogattii CBS 7750
# [16] = CBS7750, range of MICs, n=8, 35 °C, 36 h, visual, read-out: MIC C. deuterogattii CBS 7750
# [17] = ATCC90028, Table S1, read-out: MIC Candida albicans ATCC 90028
# [18] = ATCC90028, range of MICs, n=8, 35 °C, 36 h, visual, read-out: MIC C. albicans ATCC 90028
# [19] = ATCC90030, Table S1, read-out: MIC Candida glabrata ATCC 90030
# [20] = ATCC90030, range of MICs, n=8, 35 °C, 36 h, visual, read-out: MIC C. glabrata ATCC 90030
# [21] = ATCC208821, Table S1, read-out: MIC Cryptococcus neoformans ATCC 208821
# [22] = ATCC208821, range of MICs, n=8, 35 °C, 36 h, visual, read-out: MIC C. neoformans ATCC 208821
# [23] = ATCC750, Table S1, read-out: MIC Candida tropicalis ATCC 750
# [24] = ATCC750, range of MICs, n=8, 35 °C, 36 h, visual, read-out: MIC C. tropicalis ATCC 750
Compound,MIC (C. auris CBS 10913; [9]) [µg/mL],MIC (C. auris CBS 10913; [10]) [µM],MIC (C. auris CBS 12373; [11]) [µg/mL],MIC (C. auris CBS 12373; [12]) [µM],"MIC [1, 13] [µg/mL]","MIC [1, 14] [µM]","MIC [2, 15] [µg/mL]","MIC [2, 16] [µM]",MIC (C. albicans ATCC 90028; [17]) [µg/mL],MIC (C. albicans ATCC 90028; [18]) [µM],MIC (C. glabrata ATCC 90030; [19]) [µg/mL],MIC (C. glabrata ATCC 90030; [20]) [µM],"MIC [3, 21] [µg/mL]","MIC [3, 22] [µM]",MIC (C. tropicalis ATCC 750; [23]) [µg/mL],MIC (C. tropicalis ATCC 750; [24]) [µM],also measured
"OC(Cn1cncn1)(Cn1cncn1)c1ccc(F)cc1F [FCZ, Fluconazole, reference compound]",16,52.2,> 64,> 209,8 to 16,26.1 to 52.2,8,26.1,2,6.53,> 64,> 209,16,52.2,> 64,> 209,–
"CC(=O)N1CCN(c2ccc(OCC3COC(Cn4ccnc4)(c4ccc(Cl)cc4Cl)O3)cc2)CC1 (stereo not shown) [KCZ, Ketoconazole, reference compound]",0.5,≤ 0.94,2,3.76,1,1.88,0.5 to 1,0.94 to 1.88,0.5,≤ 0.94,32,60.2,1 to 2,1.88 to 3.76,16,30.1,–
"CCCCCOc1ccc(-c2cc(-c3ccc(C(=O)N[C@H]4C[C@@H](O)[C@@H](O)NC(=O)[C@@H]5[C@@H](O)[C@@H](C)CN5C(=O)[C@H]([C@H](O)CC(N)=O)NC(=O)[C@H]([C@H](O)[C@@H](O)c5ccc(O)c(OS(=O)(=O)O)c5)NC(=O)[C@@H]5C[C@@H](O)CN5C(=O)[C@H]([C@@H](C)O)NC4=O)cc3)no2)cc1 [MFG, Micafungin, reference compound] (X1-[Orn(4R-OH,5R-OH)]T[Hyp][hTyr(3S-OH,4S-OH,3'-OSO3H)][Gln(3R-OH)][Pro(3S-OH,4S-Me)]; lactam 1-C)",–,–,–,–,–,–,–,–,–,–,–,–,–,–,–,–,"MIC (C. auris CBS 10913; CBS10913, 36 h, read-out: MIC C. auris CBS 10913): ≤ 0.39 µM; MIC (C. auris CBS 12373; CBS12373, 36 h, read-out: MIC C. auris CBS 12373): ≤ 0.39 µM; MIC (C. auris CBS 12373; CBS12373, read-out: MIC Candida auris CBS 12373): 0.5 µg/mL; MIC ([1]; ATCC32609, 36 h, read-out: MIC C. deuterogattii ATCC 32609): > 49.5 µM; MIC ([1]; ATCC32609, read-out: MIC Cryptococcus deuterogattii ATCC 32609): > 64 µg/mL; MIC ([2]; CBS7750, 36 h, read-out: MIC C. deuterogattii CBS 7750): > 49.5 µM; MIC ([2]; CBS7750, read-out: MIC Cryptococcus deuterogattii CBS 7750): > 64 µg/mL; MIC (C. albicans ATCC 90028; ATCC90028, 36 h, read-out: MIC C. albicans ATCC 90028): ≤ 0.39 µM; MIC (C. albicans ATCC 90028; ATCC90028, read-out: MIC Candida albicans ATCC 90028): 0.5 µg/mL; MIC (C. glabrata ATCC 90030; ATCC90030, 36 h, read-out: MIC C. glabrata ATCC 90030): ≤ 0.39 µM; MIC (C. glabrata ATCC 90030; ATCC90030, read-out: MIC Candida glabrata ATCC 90030): 0.5 µg/mL; MIC ([3]; ATCC208821, 36 h, read-out: MIC C. neoformans ATCC 208821): > 49.5 µM; MIC ([3]; ATCC208821, read-out: MIC Cryptococcus neoformans ATCC 208821): > 64 µg/mL; MIC (C. tropicalis ATCC 750; ATCC750, 36 h, read-out: MIC C. tropicalis ATCC 750): ≤ 0.39 µM; MIC (C. tropicalis ATCC 750; ATCC750, read-out: MIC Candida tropicalis ATCC 750): 0.5 µg/mL"
"CN[C@H](CC(C)C)C(=O)N[C@H]1C(=O)N[C@@H](CC(N)=O)C(=O)N[C@H]2C(=O)N[C@H]3C(=O)N[C@H](C(=O)N[C@H](C(=O)O)c4cc(O)cc(O)c4-c4cc3ccc4O)[C@H](O)c3ccc(c(Cl)c3)Oc3cc2cc(c3O[C@@H]2O[C@H](CO)[C@@H](O)[C@H](O)[C@H]2O[C@H]2C[C@](C)(N)[C@H](O)[C@H](C)O2)Oc2ccc(cc2Cl)[C@H]1O [Van, Vancomycin, reference compound]",–,–,–,–,–,–,–,–,–,–,–,–,–,–,–,–,MIC [4]: 1 µg/mL
Colistin [reference compound],–,–,–,–,–,–,–,–,–,–,–,–,–,–,–,–,MIC Pa (Pseudomonas aeruginosa ATCC 27853) [5]: 0.25 µg/mL; MIC Ec (Escherichia coli ATCC 25922) [6]: 0.125 µg/mL; MIC Ab (Acinetobacter baumannii ATCC 19606) [7]: 0.25 µg/mL; MIC Kp (Klebsiella pneumoniae ATCC 700603) [8]: 0.25 µg/mL

# — paper PMC7855930, “Nontoxic Cobalt(III) Schiff Base Complexes with Broad‐Spectrum Antifungal Activity” (Chemistry (Weinheim an Der Bergstrasse, Germany), 2020)
